Test results: patent publication US6716862B2, “5-(Substituted)-5-(substitutedsulfonyl or sulfanyl) thiazolidine-2,4-diones useful for inhibition of farnesyl-protein transferase” (Wyeth Holdings Corporation, priority 2001, dated 2004)

Columns and labels:
[1] = molecular target: FPTase (farnesyl-protein transferase) with H-Ras as substrate for farnesylation (UniProt P29702+P49355); assay: in vitro FTase Inhibition Assay (H-Ras substrate); format: biochemical
Procedure: Enzyme assay: FPTase inhibition in vitro assay was performed according to James, G. L., Brown, M. S., and Goldstein, J. L., Methods in Enzymology, 1995, 255, 38-46; and Garcia, M. A., et al., J. Biol. Chem., 1993, 268,18415-18420.
Materials—Purified FPTase (Moomaw, J. F. and Casey, P. J., J. Biol. Chem., 1992, 267, 17438-17443), purified His6-Ras, inhibitor compounds at 10 mg/ml or 10 mM in 100% DMSO, ^3H-FPP (50,000 dpm/pmol) Amersham, TCA/SDS (6%/2%), TCA (6%), Glass fiber filters ([…]), vacuum manifold or 96 well filtration plates.
Methods—1. Dilute FPTase inhibitors from stock solutions to 2.5× in 2.5% DMSO, 10 mM DTT, 0.5% octyl-B-glucoside. 2. Solution #1 is added to FPTase reaction in a volume of […]. 3. Standard reaction mix, […], contains 50 mM Tris (7.5),[…], 3 mM MgCl2, 20 mM KCl, 5 mM DTT, 0.2% octyl-B-glucoside, 1% DMSO, […], 10 ng FPTase, and various concentrations of FPTase inhibitors. 4. Incubate for 30-90 min at 25° C. 5. Stop reactions with TCA/SDS (6%/2%), hold at 4° C. for 45-60 min. 6. Filter by manifold or 96 well plate, wash filter 3-5× with TCA (6%). 7. Add scintillant to filters, measure ^3H-FPP incorporation into Ras protein.
Analysis of Results—Percent inhibition by test compounds is determined by the following:
(cpm from precipitated Ras with test compounds)−(background cpm)×100=% inhibition.
(cpm from precipitated Ras without test compounds)−(background cpm)

SMILES | IC50 [1] [µM] | Activity* (% inhib. at 10 μM) [1] | melting point [°C]
Cc1ccc(SC2(Cc3cccc(C(=O)c4cccs4)c3)SC(=O)NC2=O)cc1 (stereo not drawn) [Example 19, 5-[3-(Thiophene-2-carbonyl)benzyl]-5-(4-methylbenzenesulfanyl)thiazolidine-2,4-dione] | 2.8 | – | –
Cc1ccc(S(=O)(=O)C2(Cc3ccc(-c4ccccc4-c4nnn[nH]4)cc3)SC(=O)NC2=O)cc1 (stereo not drawn) [Example 15, 5-[2′-(1H-Tetrazol-5-yl)biphen-4-ylmethyl]-5-(4-methylbenzenesulfonyl)thiazolidine-2,4-dione] | – | (4%) | –
COc1ccc(S(=O)(=O)C2(Cc3ccccc3)SC(=O)NC2=O)cc1 (stereo not drawn) [Example 6, 5-Benzyl-5-(4-methoxybenzenesulfonyl)thiazolidine-2,4-dione] | – | (21%) | 146 to 152
COc1ccc(S(=O)(=O)C2(Cc3ccccc3)SC(=O)N(CC(=O)NO)C2=O)cc1 (stereo not drawn) [Example 7, 2-[5-Benzyl-5-(4-methoxybenzenesulfonyl)-2,4-dioxothiazolidin-3-yl]-N-hydroxyacetamide] | 2.5 | – | –
COc1ccc(S(=O)(=O)C2(Cc3ccc(-c4ccc(Cl)cc4)cc3)SC(=O)NC2=O)cc1 (stereo not drawn) [Example 21, 5-(4′-Chlorobiphen-4-ylmethyl)-5-(4-methoxybenzenesulfonyl)thiazolidine-2,4-dione] | 1 | – | 197 to 200
Cc1ccc(S(=O)(=O)C2(Cc3ccc(Br)cc3F)SC(=O)NC2=O)cc1 (stereo not drawn) [Example 2, 5-(4-Bromo-2-fluorobenzyl)-5-(4-methylbenzenesulfonyl)thiazolidine-2,4-dione] | 6.5 | – | 236 to 237
COc1ccc(C(O)c2cccc(CC3(Sc4ccc(C)cc4)SC(=O)NC3=O)c2)cc1 (stereo not drawn) [Example 12, 5-(3-[Hydroxy(4-methoxyphenyl)methyl]-benzyl)-5-(4-methylbenzenesulfanyl)thiazolidine-2,4-dione] | 3.7 | – | –
COc1ccc(Cc2cccc(CC3(Sc4ccc(C)cc4)SC(=O)NC3=O)c2)cc1 (stereo not drawn) [Example 17, 5-[3-(4-Methoxybenzyl)benzyl]-5-(4-methylbenzenesulfanyl)thiazolidine-2,4-dione] | 2.9 | – | –
Cc1ccc(S(=O)(=O)C2(Cc3ccc(OCCc4nc(-c5ccccc5)oc4C)cc3)SC(=O)NC2=O)cc1 (stereo not drawn) [Example 1, 5-(4-[2-(5-Methyl-2-phenyloxazol-4-yl)ethoxy]benzyl)-5-(4-methylbenzenesulfonyl)thiazolidine-2,4-dione] | 2.25 | – | 202 to 204
COc1ccc(S(=O)(=O)C2(Cc3ccc(-c4ccccc4)cc3)SC(=O)NC2=O)cc1 (stereo not drawn) [Example 20, 5-Biphen-4-ylmethyl-5-(4-methoxybenzenesulfonyl)thiazolidine-2,4-dione] | 1.7 | – | 119 to 122
COc1ccc(S(=O)(=O)C2(Cc3ccc(-c4ccc(Cl)cc4Cl)cc3)SC(=O)NC2=O)cc1 (stereo not drawn) [Example 24, 5-(2′,4′-Dichlorobiphen-4-ylmethyl)-5-(4-methoxybenzenesulfonyl)thiazolidine-2,4-dione] | 0.74 | – | 104 to 107
Cc1ccc(S(=O)(=O)C2(Cc3cccc(C4(c5cccs5)OCCO4)c3)SC(=O)NC2=O)cc1 (stereo not drawn) [Example 26, 5-[3-(2-thiophen-2-yl[1,3]dioxolan-2-yl)benzyl]-5-(4-methylbenzenesulfonyl)thiazolidine-2,4-dione] | 6 | – | –
Cc1ccc(SC2(Cc3cccc(C4(c5cccs5)OCCO4)c3)SC(=O)NC2=O)cc1 (stereo not drawn) [Example 18, 5-[3-(2-Thiophen-2-yl[1,3]dioxolan-2-yl)benzyl]-5-(4-methylbenzenesulfanyl)thiazolidine-2,4-dione] | 4.5 | – | –
Cc1ccc(S(=O)(=O)C2(Cc3ccc(-c4ccccc4C#N)cc3)SC(=O)NC2=O)cc1 (stereo not drawn) [Example 14, 5-[2′-cyanobiphen-4-ylmethyl]-5-(4-methylbenzenesulfonyl)thiazolidine-2,4-dione] | 0.077 | – | –
COc1ccc(C2(c3cccc(CC4(S(=O)(=O)c5ccc(C)cc5)SC(=O)NC4=O)c3)OCCO2)cc1 (stereo not drawn) [Example 9, 5-(3-[2-(4-Methoxyphenyl)[1,3]dioxolan-2-yl]benzyl)-5-(4-methylbenzenesulfonyl)thiazolidine-2,4-dione] | 1.2 | – | –
COc1ccc(C(=O)c2cccc(CC3(S(=O)(=O)c4ccc(C)cc4)SC(=O)NC3=O)c2)cc1 (stereo not drawn) [Example 10, 5-(3-(4-methoxybenzoyl)benzyl)-5-(4-methylbenzenesulfonyl)thiazolidine-2,4-dione] | 4.25 | – | –
Cc1ccc(S(=O)(=O)C2(Cc3ccc(Cl)c(Cl)c3)SC(=O)NC2=O)cc1 (stereo not drawn) [Example 3, 5-(3,4-Dichlorobenzyl)-5-(4-methylbenzenesulfonyl)thiazolidine-2,4-dione] | – | (1%) | 183 to 184
COc1ccc(C(=O)c2cccc(CC3(Sc4ccc(C)cc4)SC(=O)NC3=O)c2)cc1 (stereo not drawn) [Example 11, 5-(3-(4-methoxybenzoyl)benzyl)-5-(4-methylbenzenesulfanyl)thiazolidine-2,4-dione] | 2.5 | – | –
COc1ccc(C2(c3cccc(CC4(Sc5ccc(C)cc5)SC(=O)NC4=O)c3)OCCO2)cc1 (stereo not drawn) [Example 8, 5-(3-[2-(4-Methoxyphenyl)[1,3]dioxolan-2-yl]benzyl)-5-(4-methylbenzenesulfanyl)thiazolidine-2,4-dione] | 1.3 | – | –
COc1ccc(S(=O)(=O)C2(Cc3ccc(-c4cc(C(F)(F)F)cc(C(F)(F)F)c4)cc3)SC(=O)NC2=O)cc1 (stereo not drawn) [Example 23, 5-(3′,5′-Bis(trifluoromethyl)biphen-4-ylmethyl)-5-(4-methoxybenzenesulfonyl)thiazolidine-2,4-dione] | > 10 | – | 122 to 125
O=C1NC(=O)C(Cc2ccc(Br)cc2F)(S(=O)(=O)c2ccc3ccccc3c2)S1 (stereo not drawn) [Example 4, 5-(4-Bromo-2-fluorobenzyl)-5-(naphthalene-2-sulfonyl)thiazolidine-2,4-dione] | – | (1%) | 195 to 197
Cc1ccc(S(=O)(=O)C2(Cc3ccc(Br)cc3)SC(=O)NC2=O)cc1 (stereo not drawn) [Example 13] | – | (28%) | –
Cc1oc(-c2ccccc2)nc1CCOc1ccc(CC2(S(=O)(=O)c3ccc4ccccc4c3)SC(=O)NC2=O)cc1 (stereo not drawn) [Example 5, 5-(4-[2-(5-Methyl-2-phenyloxazol-4-yl)ethoxy]benzyl)-5-(naphthalene-2-sulfonyl)thiazolidine-2,4-dione] | – | (−2%) | 133 to 136
COc1ccc(S(=O)(=O)C2(Cc3ccc(-c4cccc(C(F)(F)F)c4)cc3)SC(=O)NC2=O)cc1 (stereo not drawn) [Example 22, 5-(4-Methoxybenzenesulfonyl)-5-(3′-(trifluoromethyl)biphen-4-ylmethyl)thiazolidine-2,4-dione] | 2.5 | – | –
COc1ccc(S(=O)(=O)C2(Cc3ccc(-c4ccccc4C#N)cc3)SC(=O)NC2=O)cc1 (stereo not drawn) [Example 16, 5-[2′-cyanobiphen-4-ylmethyl]-5-(4-methoxybenzenesulfonyl)thiazolidine-2,4-dione] | 0.35 | – | –
Cc1ccc(SC2(Cc3cccc(Oc4cccc(Cl)c4)c3)SC(=O)NC2=O)cc1 (stereo not drawn) [Example 25, 5-[3-(3-Chlorophenoxy)benzyl]-5-(4-methylbenzenesulfanyl)thiazolidine-2,4-dione] | 3.5 | – | –
